A word on the EC50: it is the concentration that produces a half-maximal response. Low values mean higher potency in that assay, high ones lower potency in that assay.

A value given as a limit tells only on which side of the number the result lay.

Experiment [1] deals with C. elegans Slo-1a (Caenorhabditis elegans, UniProt Q95V25). Kind of experiment: Agonistic activity at C. elegans Slo-1a, FLIPR membrane potential in CHO K1 cells. The note with it: EC50 agonistic activity at C. elegans Slo-1a, CHO K1 cells stably transfected with slo-1a, membrane potential dye.
Method: A CHO K1 cell line stably transfected with the Caenorhabditis elegans slo-1a (accession no Y51A2D.19a) was established. Cells were seeded in microtiter plates (black 384-well MTP, clear bottom) in a concentration of 10,000 cells/well in 25 μl medium and cultured for 20 to 24 hours at 37° C. and 5% CO2. After incubation, 25 μl of FMP-dye Blue-Tyrode's was added to each well and incubated at room temperature for 30 min. Ten minutes after addition of 12.5 μl compound solution, the plates are transferred to the FLIPR for measurement.
For the membrane potential measurements, the plates were placed in the FLIPR Penta (Molecular Devices). The baseline measurement of the fluorescence was stared for 20 sec (Exc. 510-545 nm, Emm. 565-625 nm). Potential channel opening measurement was started by addition of 25 μl of KCl-Tyrode (final assay concentration of the KCl-Tyrode: 70 mM KCl, 2 mM CaCl2, 1 mM MgCl2, 0.8 mM NaH2PO4, 5 mM Glucose, 28 mM Hepes, pH 7.4, including the voltage sensitive dye). The complete measurement takes 150 s.
EC50 values were determined in triplicate utilizing compound dilution series. The data were determined at least in two independent tests. The data were proceeded by using the ActivityBase XE Runner software (IDBS) for curve fitting and calculation of the half-maximal effective concentration.
For experiment [2], the target named is T1, human Maxi K channel (BK channel) (Homo sapiens, UniProt Q12791).
T1 construct: expressed in transfected cells; host or cells: CHO K1
Kind of experiment: Agonistic activity at the human Maxi K channel (BK channel), FLIPR membrane potential in CHO K1 cells. It counts as cell-based. As to conditions: CHO K1 cells stably transfected with KCNMA1 and beta1 (KCNMB1) subunits, membrane potential dye. The text has this:
A CHO K1 cell line was stably transfected with the KCNMA1 (KCa1.1, U11058) and beta1 (KCNMB1) subunits of the human Maxi K channel (Ponte et al, Molecular Pharmacology 2012, 81(4), 567-577).
The complete measurement takes 150 s.

The subject of experiment [3] is Ascaridia galli. Kind of experiment: In vitro assay Ascaridia galli larval stage 3. The experiment is classed as cell-based. The note with it: larval stage 3, 20 larvae per well, microscopic examination, read-out: MEC (minimum effective concentration) against Ascaridia galli L3. The source says:
[…] galli (intestinal roundworm of chicken), larval stage 3 (“L3”); and Oesophagostumum dentatum (nodular worm of swine), larval stages 3 and 4 (respectively “L3” and “L4”) where suspended in a nutrient medium and distributed to 96 well plates with 20 larvae per well. The wells were spiked DMSO solutions of the compounds with declining concentration.

T1 sequence (Q12791 1-1178 isoform Q12791-5): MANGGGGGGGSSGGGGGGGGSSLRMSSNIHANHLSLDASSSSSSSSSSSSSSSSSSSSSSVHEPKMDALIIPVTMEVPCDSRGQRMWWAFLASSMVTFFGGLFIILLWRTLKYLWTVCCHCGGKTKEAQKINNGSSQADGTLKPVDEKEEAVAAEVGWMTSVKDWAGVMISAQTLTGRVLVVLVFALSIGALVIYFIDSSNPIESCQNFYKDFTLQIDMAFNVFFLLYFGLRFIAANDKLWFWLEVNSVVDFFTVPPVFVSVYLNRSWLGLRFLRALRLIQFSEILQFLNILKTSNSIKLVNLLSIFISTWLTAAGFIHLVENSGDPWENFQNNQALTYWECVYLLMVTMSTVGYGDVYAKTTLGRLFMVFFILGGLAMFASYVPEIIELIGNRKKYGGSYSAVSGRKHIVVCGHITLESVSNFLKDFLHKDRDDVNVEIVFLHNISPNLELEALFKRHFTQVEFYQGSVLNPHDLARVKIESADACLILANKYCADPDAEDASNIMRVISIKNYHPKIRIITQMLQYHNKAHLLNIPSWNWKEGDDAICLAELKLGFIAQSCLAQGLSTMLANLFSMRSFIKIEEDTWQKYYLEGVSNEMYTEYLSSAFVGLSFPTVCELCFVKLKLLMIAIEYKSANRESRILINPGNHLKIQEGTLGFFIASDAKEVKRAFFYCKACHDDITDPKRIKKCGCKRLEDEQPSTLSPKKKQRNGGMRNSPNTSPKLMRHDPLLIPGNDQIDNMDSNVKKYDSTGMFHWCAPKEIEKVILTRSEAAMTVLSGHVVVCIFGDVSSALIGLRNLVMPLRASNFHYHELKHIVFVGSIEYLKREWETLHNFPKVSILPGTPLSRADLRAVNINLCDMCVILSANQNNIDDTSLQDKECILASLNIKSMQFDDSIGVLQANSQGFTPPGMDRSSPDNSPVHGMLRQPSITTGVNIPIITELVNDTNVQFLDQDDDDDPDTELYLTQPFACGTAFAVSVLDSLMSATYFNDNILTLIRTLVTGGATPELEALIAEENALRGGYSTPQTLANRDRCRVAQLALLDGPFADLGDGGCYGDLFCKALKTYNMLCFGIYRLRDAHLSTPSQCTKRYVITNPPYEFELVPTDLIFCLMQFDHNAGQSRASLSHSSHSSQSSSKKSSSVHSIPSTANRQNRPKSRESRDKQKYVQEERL
T1 sequence (Q16558 whole entry partner): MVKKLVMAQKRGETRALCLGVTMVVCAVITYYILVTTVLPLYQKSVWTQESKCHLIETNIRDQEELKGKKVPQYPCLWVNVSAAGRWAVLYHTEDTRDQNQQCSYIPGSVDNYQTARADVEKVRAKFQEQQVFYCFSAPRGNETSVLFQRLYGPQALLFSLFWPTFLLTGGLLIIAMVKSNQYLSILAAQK
Sequence of C. elegans Slo-1a (Q95V25 whole entry): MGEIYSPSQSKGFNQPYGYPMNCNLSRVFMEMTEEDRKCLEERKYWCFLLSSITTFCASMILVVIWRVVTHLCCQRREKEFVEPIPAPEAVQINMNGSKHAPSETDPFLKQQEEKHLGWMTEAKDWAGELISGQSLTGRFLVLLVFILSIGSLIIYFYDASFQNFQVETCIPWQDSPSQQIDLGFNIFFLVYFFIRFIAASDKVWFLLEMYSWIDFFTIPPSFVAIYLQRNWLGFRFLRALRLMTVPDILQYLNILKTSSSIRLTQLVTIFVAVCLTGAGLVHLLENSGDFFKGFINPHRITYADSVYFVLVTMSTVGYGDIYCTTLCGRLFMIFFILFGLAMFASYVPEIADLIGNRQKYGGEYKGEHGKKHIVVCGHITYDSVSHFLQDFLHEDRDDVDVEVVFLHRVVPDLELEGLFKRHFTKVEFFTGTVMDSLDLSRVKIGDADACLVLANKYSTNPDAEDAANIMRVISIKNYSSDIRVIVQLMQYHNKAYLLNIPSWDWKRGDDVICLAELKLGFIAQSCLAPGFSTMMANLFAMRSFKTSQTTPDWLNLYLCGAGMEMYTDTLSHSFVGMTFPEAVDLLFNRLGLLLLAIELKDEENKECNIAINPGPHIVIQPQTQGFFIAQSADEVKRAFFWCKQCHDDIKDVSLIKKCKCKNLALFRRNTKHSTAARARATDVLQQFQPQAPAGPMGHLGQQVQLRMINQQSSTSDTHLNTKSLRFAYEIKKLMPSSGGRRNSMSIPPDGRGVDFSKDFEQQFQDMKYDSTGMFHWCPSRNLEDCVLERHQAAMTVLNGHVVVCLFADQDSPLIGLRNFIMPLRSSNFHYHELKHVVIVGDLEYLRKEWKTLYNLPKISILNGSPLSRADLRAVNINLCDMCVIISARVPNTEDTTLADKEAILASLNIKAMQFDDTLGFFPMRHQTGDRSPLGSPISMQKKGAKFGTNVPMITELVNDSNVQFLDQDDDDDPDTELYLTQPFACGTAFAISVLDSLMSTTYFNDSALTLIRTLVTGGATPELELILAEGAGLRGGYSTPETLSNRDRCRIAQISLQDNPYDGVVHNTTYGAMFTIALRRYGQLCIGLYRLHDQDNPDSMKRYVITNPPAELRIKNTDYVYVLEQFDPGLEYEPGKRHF

With `O=C(N[C@H]1CCOc2ccccc21)c1cnc(Oc2cc(Cl)cc(Cl)c2)cc1N1CCOCC1` [Compound 5], the EC50 is below 1 µM in experiment [1] and above 30 µM in experiment [2].

In the case of `CCSc1cc(Sc2cccc(Cl)c2Cl)ncc1C(=O)N[C@H]1CCc2ccccc21` [Compound 64], in experiment [2], the EC50 was above 30 µM.

As for `CN(C)c1cc(Sc2cccc(Cl)c2Cl)ncc1C(=O)N[C@H]1CCOc2ccccc21` [Compound 20], the EC50 in experiment [1] was below 1 µM; in experiment [2], above 30 µM.

Turning to `CN(C)c1cc(Oc2cc(Cl)cc(Cl)c2)ncc1C(=O)N[C@H]1CCc2ccccc21` [Compound 31], the EC50 is below 1 µM in experiment [1] and above 30 µM in experiment [2].

With `CSc1cc(Sc2cccc(Cl)c2Cl)ncc1C(=O)N[C@H]1CCCc2ccccc21` [Compound 54], the figures for the EC50 in experiment [1] and in experiment [2] were below 10 µM and above 30 µM, respectively. The minimal effective concentration in experiment [3] was at most 50 µM.

In the case of `CN(C)c1cc(Oc2cc(Cl)cc(Cl)c2)ncc1C(=O)N[C@H]1CCOc2ccccc21` [Compound 30], the EC50 in experiment [1] was below 1 µM; in experiment [2], above 30 µM.

In the case of `CCOc1cc(Oc2cccc(Cl)c2Cl)ncc1C(=O)N[C@H]1CCCc2ccccc21` [Compound 91], the EC50 in experiment [2] was above 30 µM.

On to `O=C(N[C@H]1CCOc2ccccc21)c1cnc(Sc2cccc(Cl)c2Cl)cc1N1CCOCC1` [Compound 22], for which the figures for the EC50 in experiment [1] and in experiment [2] were below 1 µM and above 30 µM, respectively.

With `O=C(N[C@H]1CCCc2ccccc21)c1cnc(Oc2cc(Cl)cc(Cl)c2)cc1N1CCOCC1` [Compound 8], the EC50 in experiment [1] was below 1 µM; in experiment [2], above 30 µM.

`O=C(N[C@H]1CCc2ccccc21)c1cnc(Sc2cc(Cl)cc(Cl)c2)cc1N1CCOCC1` [Compound 11]: the EC50 in experiment [1] is below 1 µM; in experiment [2], above 30 µM.

On to `O=C(Nc1cccc2ccccc12)c1cnc(Oc2cc(Cl)cc(Cl)c2)cc1N1CCOCC1` [Compound 26], for which the EC50 in experiment [2] was above 30 µM. Moreover, the minimal effective concentration in experiment [3] is at most 50 µM.

On to `CN(C)c1cc(Sc2cc(Cl)cc(Cl)c2)ncc1C(=O)N[C@H]1CCOc2ccccc21` [Compound 13], for which the EC50 in experiment [2] was above 30 µM.

Turning to `CN(C)c1cc(Sc2cc(Cl)cc(Cl)c2)ncc1C(=O)N[C@H]1CCc2ccccc21` [Compound 15], the EC50 is below 1 µM in experiment [1] and above 30 µM in experiment [2].

In experiment [2], `O=C(Nc1csc2ccccc12)c1cnc(Sc2cc(Cl)cc(Cl)c2)cc1N1CCOCC1` [Compound 27] gave an EC50 above 30 µM. Moreover, the minimal effective concentration in experiment [3] is at most 50 µM.

In experiment [2], `CCSc1cc(Oc2cccc(Cl)c2Cl)ncc1C(=O)N[C@H]1CCCc2ccccc21` [Compound 76] displayed an EC50 above 30 µM.

Take `CCOc1cc(Sc2cccc(Cl)c2Cl)ncc1C(=O)N[C@H]1CCOc2ccccc21` [Compound 71]: the EC50 was below 10 µM in experiment [1] and above 30 µM in experiment [2].

With `O=C(N[C@H]1CCOc2ccccc21)c1cnc(Oc2cccc(Cl)c2Cl)cc1N1CCOCC1` [Compound 12], the EC50 in experiment [1] was below 1 µM; in experiment [2], above 30 µM.

As for `CN(C)c1cc(Nc2cc(Cl)cc(Cl)c2)ncc1C(=O)N[C@H]1CCCc2ccccc21` [Compound 108], the results for the EC50 in experiment [1] and in experiment [2] were below 10 µM and above 30 µM, respectively. The minimal effective concentration in experiment [3] is at most 50 µM.

Turning to `CN(C)c1cc(Oc2cc(Cl)cc(Cl)c2)ncc1C(=O)Nc1csc2ccccc12` [Compound 38], the EC50 in experiment [2] was above 30 µM.

On to `O=C(N[C@H]1CCCc2ccccc21)c1cnc(Oc2cccc(Cl)c2Cl)cc1N1CCOCC1` [Compound 6], for which the EC50 in experiment [1] is below 1 µM; in experiment [2], above 30 µM.

In experiment [2], `CCSc1cc(Oc2cc(Cl)cc(Cl)c2)ncc1C(=O)N[C@H]1CCCc2ccccc21` [Compound 79] came in with an EC50 above 30 µM.

With `CN(C)c1cc(Sc2cccc(Cl)c2Cl)ncc1C(=O)N[C@H]1CCCc2ccccc21` [Compound 19], the EC50 in experiment [1] was below 1 µM; in experiment [2], above 30 µM. For the same compound, the minimal effective concentration in experiment [3] was at most 50 µM.

As for `CN(C)c1cc([S+]([O-])c2cc(Cl)cc(Cl)c2)ncc1C(=O)N[C@H]1CCc2ccccc21` (stereo partly drawn) [Compound 104, 6-((3,5-dichlorophenyl)sulfinyl)-N—((S)-2,3-dihydro-1H-inden-1-yl)-4-(dimethylamino)nicotinamide], the EC50 in experiment [2] was above 30 µM.

For `O=C(N[C@H]1CCOc2ccccc21)c1cnc(Sc2cc(Cl)cc(Cl)c2)cc1N1CCOCC1` [Compound 3, (S)—N-(chroman-4-yl)-6-((3,5-dichlorophenyl)thio)-4-morpholinonicotinamide], the EC50 in experiment [1] was below 1 µM; in experiment [2], above 30 µM.

The compound `CSc1cc(Oc2cc(Cl)cc(Cl)c2)ncc1C(=O)N[C@H]1CCc2ccccc21` [Compound 61] yielded an EC50 in experiment [2] above 30 µM. Moreover, the minimal effective concentration in experiment [3] is at most 50 µM.

On to `CCSc1cc(Oc2cccc(Cl)c2Cl)ncc1C(=O)N[C@H]1CCOc2ccccc21` [Compound 77], for which, in experiment [2], the EC50 was above 30 µM.

Compound `COc1cc(Oc2cc(Cl)cc(Cl)c2)ncc1C(=O)N[C@H]1CCc2ccccc21` [Compound 87] returned an EC50 in experiment [2] above 30 µM.

On to `O=C(N[C@H]1CCOc2ccccc21)c1cnc(Nc2cc(Cl)cc(Cl)c2)cc1N1CCOCC1` [Compound 107], for which the EC50 is below 10 µM in experiment [1] and 10 to 30 µM in experiment [2]. The minimal effective concentration in experiment [3] is at most 50 µM.

For the compound `CSc1cc(Sc2cc(Cl)cc(Cl)c2)ncc1C(=O)N[C@H]1CCCc2ccccc21` [Compound 69], the figures for the EC50 in experiment [1] and in experiment [2] were below 10 µM and above 30 µM, respectively.

In the case of `CN(C)c1cc(Sc2cccc(Cl)c2Cl)ncc1C(=O)N[C@H]1CCc2ccccc21` [Compound 42], the EC50 in experiment [1] is below 1 µM; in experiment [2], above 30 µM.

`O=C(Nc1csc2ccccc12)c1cnc(Oc2cc(Cl)cc(Cl)c2)cc1N1CCOCC1` [Compound 47]: the EC50 in experiment [2] was above 30 µM. Besides, the minimal effective concentration in experiment [3] is at most 50 µM.

In the case of `CN(C)c1cc(S(=O)(=O)c2cc(Cl)cc(Cl)c2)ncc1C(=O)N[C@H]1CCc2ccccc21` [Compound 105], the EC50 in experiment [2] is above 30 µM.

The compound `CCOc1cc(Sc2cccc(Cl)c2Cl)ncc1C(=O)N[C@H]1CCCc2ccccc21` [Compound 70] had an EC50 in experiment [2] above 30 µM.

With `O=C(Nc1cccc2ccccc12)c1cnc(Sc2cccc(Cl)c2Cl)cc1N1CCOCC1` [Compound 49], in experiment [2], the EC50 is above 30 µM. Besides, the minimal effective concentration in experiment [3] is at most 50 µM.

On to `CCOc1cc(Sc2cc(Cl)cc(Cl)c2)ncc1C(=O)N[C@H]1CCOc2ccccc21` [Compound 88], for which the EC50 in experiment [1] was below 10 µM; in experiment [2] it was above 30 µM.

Turning to `CSc1cc(Oc2cc(Cl)cc(Cl)c2)ncc1C(=O)N[C@H]1CCCc2ccccc21` [Compound 59], the values for the EC50 in experiment [1] and in experiment [2] were below 10 µM and above 30 µM, respectively.

Take `O=C(N[C@H]1CCc2ccccc21)c1cnc(Oc2cccc(Cl)c2Cl)cc1N1CCOCC1` [Compound 7]: the results for the EC50 in experiment [1] and in experiment [2] were below 1 µM and above 30 µM, respectively.

Compound `CN(C)c1cc(Sc2cccc(Cl)c2Cl)ncc1C(=O)Nc1csc2ccccc12` [Compound 44] gave an EC50 in experiment [2] above 30 µM.

Compound `CCOc1cc(Oc2cc(Cl)cc(Cl)c2)ncc1C(=O)N[C@H]1CCOc2ccccc21` [Compound 89] had an EC50 in experiment [2] above 30 µM.

Compound `CCSc1cc(Sc2cccc(Cl)c2Cl)ncc1C(=O)N[C@H]1CCOc2ccccc21` [Compound 63] showed an EC50 in experiment [2] above 30 µM.

Consider `CN(C)c1cc(Sc2cc(Cl)cc(Cl)c2)ncc1C(=O)Nc1csc2ccccc12` [Compound 33], for which, in experiment [2], the EC50 was above 30 µM. The minimal effective concentration in experiment [3] is at most 50 µM.

On to `O=C(N[C@H]1CCc2ccccc21)c1cnc(Oc2cc(Cl)cc(Cl)c2)cc1N1CCOCC1` [Compound 25, (S)-6-(3,5-dichlorophenoxy)-N-(2,3-dihydro-1H-inden-1-yl)-4-morpholinonicotinamide], for which, in experiment [2], the EC50 is above 30 µM.

In experiment [2], `O=C(N[C@@H]1CCOc2ccccc21)c1cnc(Oc2cccc(Cl)c2Cl)cc1N1CCOCC1` [Compound 51] had a concentration giving a half-maximal response (EC50) above 30 µM.

For the compound `O=C(Nc1cccc2ccccc12)c1cnc(Sc2cc(Cl)cc(Cl)c2)cc1N1CCOCC1` [Compound 10], the EC50 in experiment [2] is above 30 µM. The minimal effective concentration in experiment [3] is at most 50 µM.

In the case of `O=C(N[C@H]1CCCc2ccccc21)c1cnc(Sc2cc(Cl)cc(Cl)c2)cc1N1CCOCC1` [Compound 9], the EC50 was below 1 µM in experiment [1] and above 30 µM in experiment [2].

For the compound `CCOc1cc(Oc2cc(Cl)cc(Cl)c2)ncc1C(=O)N[C@H]1CCCc2ccccc21` [Compound 98], the EC50 in experiment [2] was above 30 µM.

`CCSc1cc(Oc2cc(Cl)cc(Cl)c2)ncc1C(=O)N[C@H]1CCOc2ccccc21` [Compound 80]: in experiment [2], the EC50 was above 30 µM. The minimal effective concentration in experiment [3] is at most 50 µM.

For `CSc1cc(Sc2cc(Cl)cc(Cl)c2)ncc1C(=O)N[C@H]1CCc2ccccc21` [Compound 65], the figures for the EC50 in experiment [1] and in experiment [2] were below 10 µM and above 30 µM, respectively.

`CCSc1cc(Sc2cc(Cl)cc(Cl)c2)ncc1C(=O)N[C@H]1CCCc2ccccc21` [Compound 75] had an EC50 in experiment [2] above 30 µM.

Compound `CCSc1cc(Oc2cccc(Cl)c2Cl)ncc1C(=O)N[C@H]1CCc2ccccc21` [Compound 78] came in with an EC50 in experiment [2] above 30 µM.

In experiment [2], `CCOc1cc(Oc2cccc(Cl)c2Cl)ncc1C(=O)N[C@H]1CCc2ccccc21` [Compound 93] displayed an EC50 above 30 µM.

As for `CN(C)c1cc(Sc2cccc(Cl)c2Cl)ncc1C(=O)Nc1cccc2ccccc12` [Compound 43], in experiment [2], the EC50 is above 30 µM.

In experiment [2], `CCSc1cc(Oc2cc(Cl)cc(Cl)c2)ncc1C(=O)N[C@H]1CCc2ccccc21` [Compound 81] gave an EC50 above 30 µM.
